The results in this text go back to patent publication US11753445B2, “Therapeutic peptides” (COHBAR, INC., priority 2016, dated 2023).

Peptide text beside a SMILES is read from it.

The test system of the assay is 3T3-L1 Adipocytes. Description: Free fatty acid levels in cultured mouse 3T3-L1 adipocytes, isoproterenol stimulated (Example 2). Format: cell-based. Conditions: test peptides 25 μM; isoproterenol 1 nM. As for the experimental part:
Mouse 3T3-L1 cells were seeded at a density between 1,000-20,000 cells per well on 96-well, 48-well, or 24-well plates in Pre-adipocyte Medium (Zen-Bio, Durham, N.C.) and grown to confluence at 37° C. in a humidified atmosphere of 5% CO2/95% air. Two days after confluence, cells were placed in Adipocyte Differentiation Medium (Zen-Bio, Durham, N.C.) and cultured for three additional days at 37° C. in a humidified atmosphere of 5% CO2/95% air. The culture media was then replaced with Adipocyte Maintenance Medium (Zen-Bio) and the cells were maintained for an additional 9-14 days at 37° C. in a humidified atmosphere of 5% CO2/95% air with partial medium replacement every other day. Following 12-17 days of differentiation, test peptides were added at a final concentration of 25 μM and incubated for 18-20 hours in Adipocyte Maintenance Medium at 37° C. in a humidified atmosphere of 5% CO2/95%. After 18-20 hours, the media was exchanged with fresh Adipocyte Maintenance Medium containing test peptides and incubated for 1 h at 37° C. in a humidified atmosphere of 5% CO2/95%. After 1 h media was exchanged with Assay Buffer (Zen-Bio) containing isoproterenol (1 nM) (added to all samples except untreated controls) and the test peptides. Cells were incubated for a further 3 hours at 37° C. in a humidified atmosphere of 5% CO2/95%. Free fatty acid concentrations in the media were determined using a Free Fatty Acid Assay Kit (Zen-Bio) according to the manufacturer's instructions using a plate reader (540 nm).
Absorbance values were corrected for untreated background and expressed relative to isoproterenol treated cells. Treatment with isoproterenol (1 nM) alone was used as the free fatty acid level stimulatory control. The relative standard deviation of the isoproterenol control was <10%. […] Free fatty acid levels for insulin (100 nM) treatment were <5% of the isoproterenol control value.
Take `CC[C@H](C)[C@H](NC(=O)[C@H](Cc1ccc(O)cc1)NC(=O)CNC(=O)[C@H](CCSC)NC(=O)[C@H](CCC(=O)O)NC(=O)[C@H](CCC(N)=O)NC(=O)[C@H](Cc1c[nH]c2ccccc12)NC(=O)[C@H](CCCNC(=N)N)NC(=O)[C@@H](C)NC(C)=O)C(=O)N[C@@H](Cc1ccccc1)C(=O)N[C@@H](Cc1ccc(O)cc1)C(=O)N1CCC[C@H]1C(=O)N[C@@H](CCCNC(=N)N)C(=O)N[C@@H](CCCCN)C(=O)N[C@@H](CC(C)C)C(=O)N[C@@H](CCCNC(=N)N)C(N)=O` [compound 152] (HELM PEPTIDE1{[ac].[dA].R.W.Q.E.M.G.Y.I.F.Y.P.R.K.L.R.[am]}$$$$V2.0): the “Free Fatty Acid Levels in 3T3-L1 Adipocytes Expressed as a Percent of Isoproterenol Control: Percent of Control Value” was found to be 81.9%.
Consider `CC[C@H](C)[C@H](NC(=O)[C@H](Cc1ccc(O)cc1)NC(=O)CNC(=O)[C@H](CCSC)NC(=O)[C@H](CCC(=O)O)NC(=O)[C@H](CCC(N)=O)NC(=O)[C@H](Cc1c[nH]c2ccccc12)NC(=O)[C@@H](C)NC(=O)[C@H](CCSC)NC(C)=O)C(=O)N[C@@H](Cc1ccccc1)C(=O)N[C@@H](Cc1ccc(O)cc1)C(=O)N1CCC[C@H]1C(=O)N[C@@H](CCCNC(=N)N)C(=O)N[C@@H](CCCCN)C(=O)N[C@@H](CC(C)C)C(=O)N[C@@H](CCCNC(=N)N)C(N)=O` [compound 153] (HELM PEPTIDE1{[ac].M.[dA].W.Q.E.M.G.Y.I.F.Y.P.R.K.L.R.[am]}$$$$V2.0), for which the “Free Fatty Acid Levels in 3T3-L1 Adipocytes Expressed as a Percent of Isoproterenol Control: Percent of Control Value” was 93.1%.
As for `CC[C@H](C)[C@H](NC(=O)[C@H](Cc1ccc(O)cc1)NC(=O)CNC(=O)[C@H](CCSC)NC(=O)[C@H](CCC(=O)O)NC(=O)[C@H](CCC(N)=O)NC(=O)[C@@H](C)NC(=O)[C@H](CCCNC(=N)N)NC(=O)[C@H](CCSC)NC(C)=O)C(=O)N[C@@H](Cc1ccccc1)C(=O)N[C@@H](Cc1ccc(O)cc1)C(=O)N1CCC[C@H]1C(=O)N[C@@H](CCCNC(=N)N)C(=O)N[C@@H](CCCCN)C(=O)N[C@@H](CC(C)C)C(=O)N[C@@H](CCCNC(=N)N)C(N)=O` [compound 154] (HELM PEPTIDE1{[ac].M.R.[dA].Q.E.M.G.Y.I.F.Y.P.R.K.L.R.[am]}$$$$V2.0), the “Free Fatty Acid Levels in 3T3-L1 Adipocytes Expressed as a Percent of Isoproterenol Control: Percent of Control Value” was 95.7%.
As for `CC[C@H](C)[C@H](NC(=O)[C@H](Cc1ccc(O)cc1)NC(=O)CNC(=O)[C@H](CCSC)NC(=O)[C@H](CCC(=O)O)NC(=O)[C@@H](C)NC(=O)[C@H](Cc1c[nH]c2ccccc12)NC(=O)[C@H](CCCNC(=N)N)NC(=O)[C@H](CCSC)NC(C)=O)C(=O)N[C@@H](Cc1ccccc1)C(=O)N[C@@H](Cc1ccc(O)cc1)C(=O)N1CCC[C@H]1C(=O)N[C@@H](CCCNC(=N)N)C(=O)N[C@@H](CCCCN)C(=O)N[C@@H](CC(C)C)C(=O)N[C@@H](CCCNC(=N)N)C(N)=O` [compound 155] (HELM PEPTIDE1{[ac].M.R.W.[dA].E.M.G.Y.I.F.Y.P.R.K.L.R.[am]}$$$$V2.0), the “Free Fatty Acid Levels in 3T3-L1 Adipocytes Expressed as a Percent of Isoproterenol Control: Percent of Control Value” amounted to 90.1%.
As to `CC[C@H](C)[C@H](NC(=O)[C@H](Cc1ccc(O)cc1)NC(=O)CNC(=O)[C@H](CCSC)NC(=O)[C@@H](C)NC(=O)[C@H](CCC(N)=O)NC(=O)[C@H](Cc1c[nH]c2ccccc12)NC(=O)[C@H](CCCNC(=N)N)NC(=O)[C@H](CCSC)NC(C)=O)C(=O)N[C@@H](Cc1ccccc1)C(=O)N[C@@H](Cc1ccc(O)cc1)C(=O)N1CCC[C@H]1C(=O)N[C@@H](CCCNC(=N)N)C(=O)N[C@@H](CCCCN)C(=O)N[C@@H](CC(C)C)C(=O)N[C@@H](CCCNC(=N)N)C(N)=O` [compound 156] (HELM PEPTIDE1{[ac].M.R.W.Q.[dA].M.G.Y.I.F.Y.P.R.K.L.R.[am]}$$$$V2.0), the “Free Fatty Acid Levels in 3T3-L1 Adipocytes Expressed as a Percent of Isoproterenol Control: Percent of Control Value” is on record as 94.7%.
